For orientation: IC50 means the concentration that gives 50% inhibition.

In one experiment the target is T1, GlyT2 S481G mutant (Rattus norvegicus, UniProt P58295, S481G).
T1 construct: expressed in transfected cells; host or cells: COS7
T1 sequence (P58295 1-799 S481G): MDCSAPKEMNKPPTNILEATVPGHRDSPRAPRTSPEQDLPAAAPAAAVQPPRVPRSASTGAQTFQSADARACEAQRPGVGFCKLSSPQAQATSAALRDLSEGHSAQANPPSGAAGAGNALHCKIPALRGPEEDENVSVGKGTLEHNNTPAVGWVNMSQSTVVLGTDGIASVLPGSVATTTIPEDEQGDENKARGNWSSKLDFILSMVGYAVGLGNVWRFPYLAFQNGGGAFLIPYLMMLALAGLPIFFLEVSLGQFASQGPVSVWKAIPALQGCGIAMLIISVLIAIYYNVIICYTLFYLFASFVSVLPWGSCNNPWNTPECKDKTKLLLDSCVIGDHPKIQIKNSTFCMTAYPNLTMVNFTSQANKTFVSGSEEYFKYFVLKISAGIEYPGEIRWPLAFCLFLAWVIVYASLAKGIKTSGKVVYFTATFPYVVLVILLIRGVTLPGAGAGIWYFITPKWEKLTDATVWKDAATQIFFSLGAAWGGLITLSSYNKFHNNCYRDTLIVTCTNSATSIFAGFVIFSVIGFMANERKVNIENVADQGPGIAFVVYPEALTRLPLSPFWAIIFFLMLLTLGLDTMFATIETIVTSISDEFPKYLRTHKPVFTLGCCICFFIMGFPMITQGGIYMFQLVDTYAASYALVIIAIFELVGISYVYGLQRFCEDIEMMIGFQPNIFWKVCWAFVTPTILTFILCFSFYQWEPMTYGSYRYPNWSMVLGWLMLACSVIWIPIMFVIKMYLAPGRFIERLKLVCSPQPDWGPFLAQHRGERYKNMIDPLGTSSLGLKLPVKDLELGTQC
Kind of experiment: [3H]glycine transport by GlyT2 mutant in COS7 cells. Type of experiment: cell-based.

For another experiment, the target named is T2, GlyT2 D635E mutant (Rattus norvegicus, UniProt P58295, D635E).
T2 construct: expressed in transfected cells; host or cells: COS7
T2 sequence (P58295 1-799 D635E): T1 sequence (P58295 1-799 S481G) with G481S, D635E
The description is as above. The experiment is classed as cell-based. The note with it: read-out: IC50 (Table S1).

Experiment [1] has as its system thermal, mechanical, and chemical stimulations. The note with it: rat acute pain model; cited from earlier work.

The structures appear in SMILES notation. Numbering of substitutions follows the chain as printed.

With `N[C@@H](COC(c1cccc(F)c1)c1ccccc1OCc1ccccc1)C(=O)O` (stereo partly shown) [ALX1393], the “effect of mutation on inhibition of glycine transport” value at GlyT2 S481G mutant (S481G, 1 μM inhibitor, 25 μM glycine) was “more reduced inhibition potency for ALX1393 than for ORG25543”. Also, the IC50 on GlyT2 S481G mutant (read-out: IC50 (Table S1)) came out at 0.075 ± 0.008 µM; at GlyT2 D635E mutant it was 0.03 ± 0.004 µM. For the same molecule, the “effect on thermal, mechanical, and chemical stimulations” value in experiment [1] was “antinociceptive effect”.

The record behind these values is article PMC8691691 (ACS Chemical Neuroscience, 2021).
